Assay results published in US5512562A, “Tricyclic 2,3,4,5-tetrahydro-1H-3-benzapines” (Novo Nordisk A/S, priority 1993, dated 1996).

Target: T1, dopamine D1 receptor (Rattus norvegicus, UniProt P18901)
T1 construct: from tissue; host or cells: rat striatum homogenate
Assay: binding to dopamine D1 receptor in homogenates from rat striatum
Method: The compounds of the invention are useful because of their pharmacological activity. In particular, the compounds of the invention are active in assays predictive for antipsychotic effect. Thus the compounds of formula I were tested for their binding to dopamine D1 receptor in homogenates from rat striatum using the method described (Life Science vol. 37, p. 1971 (1985) P. Andersen et al.) and the result appears from Table I. IC50 is the affinity of tested compounds for the dopamine D1 receptor.

T1 sequence (P18901 whole entry): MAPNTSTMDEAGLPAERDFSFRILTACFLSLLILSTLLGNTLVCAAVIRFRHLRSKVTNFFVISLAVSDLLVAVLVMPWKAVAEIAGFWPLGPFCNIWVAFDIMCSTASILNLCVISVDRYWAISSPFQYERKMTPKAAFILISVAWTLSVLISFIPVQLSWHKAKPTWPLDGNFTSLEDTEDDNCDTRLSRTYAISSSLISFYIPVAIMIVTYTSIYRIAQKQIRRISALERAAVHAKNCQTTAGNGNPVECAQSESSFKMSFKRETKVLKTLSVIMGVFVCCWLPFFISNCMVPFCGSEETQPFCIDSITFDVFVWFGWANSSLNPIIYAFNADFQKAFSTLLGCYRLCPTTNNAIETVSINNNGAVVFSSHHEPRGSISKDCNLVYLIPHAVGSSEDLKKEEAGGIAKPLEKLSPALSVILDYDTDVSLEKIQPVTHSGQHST

## CN1CCc2c(ccc3ccoc23)C(c2cccc3ccoc23)C1 (racemic) [Example 1, 6-(Benzofuran-7-yl)-8-methyl-7,8,9,10-tetrahydro-6H-furo 2,3-g! 3!benzazepine]
  IC50: 12 nM
